From patent publication US11311541B2 (priority 2014, dated 2022)
Entries after “also recorded” stand apart in the source; their conditions may differ. Where two headings read alike, the source gives them in different places. Values belong to the compound of their own block, whether it stands above or below them.

Key:
ROCK1 = ROCK1 (Homo sapiens (Human), UniProt Q13464); assay type: biochemical
Description: (§2) Dose response curves for Rho-kinase inhibition were derived from a Invitrogen Z′-LYTE™ Kinase Assay Kit (Invitrogen catalog number PV3793). Purified active ROCK1 and ROCK2 were obtained from Invitrogen (catalog numbers ROCK1, PV3691 and ROCK2, PV3759). The kit components include a coumarin and fluorescein labeled peptide based on myosin light chain 2 ([sequence]), a proprietary protease containing development reagent and a proprietary Stop buffer used to terminate the development reaction. The inhibitory activities of compounds are measured according to the manufactures protocol. […] This mixture is overlayed into a white 96-well half area plate and the reaction is initiated with the addition of 5 uM ATP for ROCK1 or 12 uM ATP for ROCK2. The assay proceeds at room temperature for 1 hour followed by the addition of development reagent, and further incubation for 1 hour at room temperature. STOP reagent is then added and the reaction and immediately the coumarin and fluorescein emission signals are read on a Tecan Infinite M1000 fluorescence plate reader (excitation: 400 nm; emission 445 and 520 nm, respectively). By comparing the emission ratios of the test samples against control samples, percent phosphorylation values are calculated and the concentration of inhibitor that produces ½ inhibition of kinase activity (IC50) is determined using Prism.

ROCK2 [1] = molecular target: T1, ROCK2 (Homo sapiens (Human), UniProt O75116); assay: biochemical
Description: as §2

[2] = system: TGF-β-induced STAT3, MLC and SMAD2/3 phosphorylation; assay: TGF-β-induced phosphorylation in Tregs; assay type: cell-based
Excerpt: (FIG. 16). TGF-3 is involved in development and function of both Th17 and Treg subsets of T cells. However, when Tregs are regulated in Smad2/3-dependent signaling mechanism, TGF-β regulates Th17 cells in Smad2/3 independent manner that is considered as non-canonical TGF-β-induced signaling.

CD4+ human T cells [3] = assay: T cell proliferation in response to TCR stimulation in vitro; assay type: cell-based
Excerpt: (§1) Activation of resting T cells, resulting in cytokine secretion and proliferation, involves two distinct signals from antigen-presenting cells (APCs), mimicked by co-stimulation of the T cell receptor (TCR)/CD3 complex and the CD28 receptor.

[4] = system: murine model of chronic GVHD; assay: murine model of chronic GVHD, lung pathology
Description: On day −1, recipients received total-body irradiation (TBI) by X-ray (8.5 Gy). Donor bone marrow (BM) was T-cell depleted with anti-Thy 1.2 mAb followed by rabbit complement. On day 0, recipients received 10^7 BM cells with or without allogeneic splenocytes (10^6 cells). Weights of individual mice were recorded twice weekly. […] The analysis of pulmonary function was performed on day 28 (before the treatment) and on day 56. Anesthetized mice were weighed, and lung function was assessed by wholebody plethysmography with the Flexivent system (SCIREQ) and analyzed with Flexivent Version 5.1 software. Survival data were analyzed by life-table methods, and actuarial survival rates are shown. Group comparisons were made by log-rank test.
Lungs were inflated by infusion of 1 mL of optimal cutting temperature compound:PBS (3:1) intratracheally prior to harvest. Six-micrometer cryosections were fixed for 5 minutes in acetone and stained with mMasson's trichrome staining kit (Sigma-Aldrich) for detection of collagen deposition. Collagen deposition was quantified on trichrome-stained sections as a ratio of area of blue staining to area of total staining by use of the Adobe mPhotoshop CS3 analysis tool (Adobe Systems). For measuring Ig deposition, acetone-fixed 6-m lung cryosections were blocked with horse serum and streptavidin-biotin blocking kit (Vector) and stained with fluorescein isothiocyanate (FITC)-labeled anti-mouse-Ig (BD Pharmingen). Antibody deposition was quantified by area of Ig staining per 100-μm section.
Mice were treated as described above, except that twelve animals per group were tested. […] (n=3/group). Spleens were also collected for analysis on day 56. […] Pulmonary function tests and analysis of body weight were performed as described above.

[5] = system: murine model of chronic GVHD; assay: germinal centers and Tfh cells in spleen, murine model of chronic GVHD; assay type: in vivo, mouse; conditions: 150 mg/kg
Description: Fixed 6-μm spleen cryosections of mice were stained with rhodamine-conjugated peanut agglutinin (PNA; Vector Laboratories), and the size of the PNA-positive sections was measured and defined as germinal centers. For flow cytometric analysis of Tfh cells and GC B cells, single-cell suspensions from spleens were obtained and labeled with anti-CD4, anti-CXCR5, and anti-PD1 antibodies (eBioscience). Cells were analyzed on a BD LSRFortessa cell analyzer.

CD4+ human T cells [6] = assay: cytokine secretion of anti-CD3/CD28 stimulated CD4+ T cells in vitro; assay type: cell-based; conditions: anti-CD3/CD28 stimulation
Excerpt: as §1

[7] = system: PBMCs of treated patients; assay: ex vivo stimulation of cytokine production in PBMCs isolated from treated patients; set-up: species or system human; conditions: 120 mg/day, days 1 and 8-14; anti-CD3/CD28 72 hours
Description: Peripheral blood mononuclear cells (PBMCs) were collected at the start and end of the trial and stimulated by plating on immobilized anti-CD3/CD28 antibodies for 72 hours, and levels of IL-17, IL-21, and IFN-γ were measured. […] No effect on IFN-γ was observed.

human CD4+ T cells = assay: Foxp3+ cells among CD4+ T cells; assay type: cell-based; conditions: 5 days of Th17 skewing activation
Excerpt: Foxp3 is a lineage-specific transcription factor for Tregs and is crucial to the development and inhibitory function of these cells. STAT5 signaling positively regulates the induction and stabilization of Foxp3 expression in T cells in vitro and in vivo. […] (FIG. 14).

[8] = system: sclerodermatous cGVHD mouse model; assay: sclerodermatous cGVHD mouse model (B10.D2 into BALB/c); assay type: in vivo
Excerpt: In this model, BALB/c (H-2^d) mice received 775 cGy of total body radiation on day 0 and were transplanted with bone marrow and T-cells from B10.D2 (H-2^d) mice. […] The GVHD score in this model combined changes in weight lost, posture, activity, fur texture, and skin integrity (FIG. 26). Sclerodermatous cGVHD mice were further analyzed as depicted in FIGS. 27-35.

[9] = plasma KD025 concentration in murine chronic GVHD; assay type: in vivo, mouse; conditions: day 56, 1-hr pre-dose and 1-hr post-dose
Description: Mice were treated as described above, except that twelve animals per group were tested. […] (n=3/group).

CD4+CD25+ human Tregs = assay: Treg inhibition of IL-17 secretion in CD4+CD25- T cells; assay type: cell-based; conditions: Tregs treated 3 hours; Treg:Teff 1:4 and 1:9
STAT3 phosphorylation = STAT3 phosphorylation in T cells; assay type: cell-based, human
Description: STAT3 plays a critical role in Th17 differentiation via regulation of RORγt expression and direct binding to the IL-17 and IL-21 promoters. […] In a different experiment, cells were cultured under Th17-skewing conditions for 5 days and then treated with the ROCK2 selective inhibitor for 3 hours.

[10] = system: CD4+ T cells from RA patients; assay: cytokine secretion ex vivo in CD4+ T cells from RA patients; assay type: cell-based, human
Excerpt: Among RA patients, inhibition of IFN-γ production was correlated with disease activity score (DAS). (FIG. 12B).

[11] = system: STAT3/STAT5 phosphorylation, RORγt, IRF4, Bcl6 in spleens; assay: Western blot of spleen cells, murine model of cGVHD; assay type: in vivo, mouse; conditions: treatment days 28-56
Description: Mice were treated as described above, except that twelve animals per group were tested. […] (n=3/group). Spleens were also collected for analysis on day 56. […] Single cell suspensions were prepared from the isolated spleens. Cells were lysed in RIPA buffer and analyzed for protein content. Sample buffer was then added, and, after boiling, the samples, containing equal amounts of proteins, were separated by SDS-PAGE gel electrophoresis and transferred to a nitrocellulose membrane. Membranes were blocked and probed with specific antibodies overnight. Actin was used as a loading control. Anti-pSTAT3 pSTAT5 and Bcl6 antibodies were purchased from Cell Signaling Technologies (Beverly, Mass.). Anti-IRF4 (sc-48338) and anti-RORγt (14-6988) were obtained from Santa Cruz Biotechnology Inc. and eBioscience respectively. Immunoreactive protein bands were visualized using an HRP-conjugated secondary antibodies and an enhanced ECL system.

ROCK2 [12] = molecular target: T1, ROCK2; conditions: read-out: ROCK2 IC50
Description: as §2

cytokine secretion = assay: cytokine secretion, FIG. 10; assay type: cell-based
[13] = Table 3 (Example 203, method not given)
[14] = day 98, 42 days after last administration
[15] = 2 RA patients, intracellular staining
[16] = RA patients, anti-CD3/CD28, ex vivo

T1 sequence (O75116 1-552): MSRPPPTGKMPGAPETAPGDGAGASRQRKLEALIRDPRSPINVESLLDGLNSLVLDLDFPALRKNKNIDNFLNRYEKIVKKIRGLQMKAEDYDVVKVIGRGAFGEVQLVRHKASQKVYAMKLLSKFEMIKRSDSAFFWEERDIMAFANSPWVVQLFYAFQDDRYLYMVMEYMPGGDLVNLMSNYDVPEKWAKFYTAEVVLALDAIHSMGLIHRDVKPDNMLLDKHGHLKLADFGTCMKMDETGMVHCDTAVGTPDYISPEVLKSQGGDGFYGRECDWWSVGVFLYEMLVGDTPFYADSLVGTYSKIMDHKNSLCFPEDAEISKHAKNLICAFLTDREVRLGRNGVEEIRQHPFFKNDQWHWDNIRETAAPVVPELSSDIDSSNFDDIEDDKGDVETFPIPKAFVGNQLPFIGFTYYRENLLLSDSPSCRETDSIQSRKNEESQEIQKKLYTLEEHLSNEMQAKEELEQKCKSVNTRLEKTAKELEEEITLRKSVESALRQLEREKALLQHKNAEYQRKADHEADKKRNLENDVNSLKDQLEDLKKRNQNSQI
Sequence of ROCK1 (Q13464 1-535): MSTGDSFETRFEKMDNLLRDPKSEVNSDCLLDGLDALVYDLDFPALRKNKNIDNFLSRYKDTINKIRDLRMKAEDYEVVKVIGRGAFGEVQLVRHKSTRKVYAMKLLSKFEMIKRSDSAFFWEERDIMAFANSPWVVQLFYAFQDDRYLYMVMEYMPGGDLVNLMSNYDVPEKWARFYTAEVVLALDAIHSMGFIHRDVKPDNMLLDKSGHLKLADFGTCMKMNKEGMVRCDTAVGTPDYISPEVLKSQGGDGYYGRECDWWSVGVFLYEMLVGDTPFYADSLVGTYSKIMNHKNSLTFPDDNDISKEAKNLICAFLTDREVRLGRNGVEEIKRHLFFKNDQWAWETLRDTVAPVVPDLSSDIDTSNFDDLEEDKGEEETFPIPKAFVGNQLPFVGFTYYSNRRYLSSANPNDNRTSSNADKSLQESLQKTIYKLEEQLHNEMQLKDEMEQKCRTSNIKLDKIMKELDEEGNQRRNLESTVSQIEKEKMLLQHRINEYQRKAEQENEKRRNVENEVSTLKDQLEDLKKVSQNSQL

- IC50 (ROCK1; [13]): > 10 µM
Compound: c1cc(Nc2ccc3[nH]ncc3c2)nc(N2CCc3sccc3C2)n1 [Example 192, N-(2-(6,7-dihydrothieno[3,2-c]pyridin-5(4H)-yl)pyrimidin-4-yl)-1H-indazol-5-amine]

- IC50 (ROCK1; [13]): > 10 µM
Compound: COc1ccc2c(c1)CN(c1cc(Nc3ccc4[nH]ncc4c3)ncn1)C2 [Example 193, N-(6-(5-methoxyisoindolin-2-yl)pyrimidin-4-yl)-1H-indazol-5-amine]

- IC50 (ROCK1; [13]): > 10 µM
Compound: Clc1ccc2c(c1)CN(c1nccc(Nc3ccc4[nH]ncc4c3)n1)C2 [Example 190, N-(2-(5-chloroisoindolin-2-yl)pyrimidin-4-yl)-1H-indazol-5-amine]

- IC50 (ROCK1; [13]): > 10 µM
- IC50 (ROCK2 [1]): 0.13 to 0.18 µM
Compound: COc1ccc2c(c1)CN(c1cc(Nc3ccc4[nH]ncc4c3)nc(C)n1)C2 [Example 194, N-(6-(5-methoxyisoindolin-2-yl)-2-methylpyrimidin-4-yl)-1H-indazol-5-amine]

Compound: CC(C)NC(=O)COc1cccc(-c2nc(Nc3ccc4[nH]ncc4c3)c3ccccc3n2)c1 [KD025]
- TGF-β-induced MLC phosphorylation [2]: down-regulates
- TGF-β-induced STAT3 phosphorylation [2]: down-regulates
- phosphorylation of SMAD2/3 [2]: remains intact
- proliferation in response to TCR stimulation (CD4+ human T cells [3]): down-regulated their ability to proliferate
- pulmonary function (resistance, elastance, compliance) ([4]; 100 mg/kg i.p. daily from day 28, tested day 56): significantly improved and normalized pulmonary function
- antibody deposition in lungs ([4]; 150 mg/kg): essentially indistinguishable from samples from uninduced mice
- collagen deposition in lungs ([4]; 150 mg/kg): essentially indistinguishable from samples from uninduced mice
- effect on cGVHD lung pathology, dose dependence ([4]; 30, 100, 150 mg/kg): dose dependent
- body weight ([4]; Example 216, FIG. 23): no effect
- survival rates ([4]; FIG. 18): no effect
- body weight ([4]; FIG. 18, 19): no effect
- lung resistance [4, 14]: dose-dependent decrease
- respiratory function [4, 14]: long-lasting improvement; also recorded: Partial improvement
- numbers of CD4+PD1HiCXCR5 Tfh cells in spleen [5]: reversed
- numbers of germinal centers in spleen [5]: reversed
- IFN-γ secretion (CD4+ human T cells [6]): less robust and significant only at high dose (10 μM)
- IL-2 secretion (CD4+ human T cells [6]): observed only at the highest concentration (10 μM)
- IL-17 secretion (CD4+ human T cells [6]): significantly inhibited
- IL-21 secretion (CD4+ human T cells [6]): significantly inhibited
- induction of IL-17 secretion in PBMCs [7]: significantly inhibited in PBMCs isolated from four of five patients
- induction of IL-21 secretion in PBMCs [7]: significantly inhibited in PBMCs from all five patients
- percentage of Foxp3+ cells (human CD4+ T cells): significantly increased
- cervical LN T Cell IFNg ([8]; FIG. 32): decreased
- development of chronic sclerodermatous cGVHD ([8]; i.p. once daily days 19-47): blocked the development
- GVHD score ([8]; i.p. once daily days 19-47, weight lost, posture, activity, fur texture, skin integrity): significantly decreased
- plasma KD025 concentrations [9]: measurable and generally dose dependent
- ability of Tregs to suppress IL-17 secretion in CD4+CD25- effector T cells (CD4+CD25+ human Tregs): significantly increased
- phosphorylation of IFR4 and RORγT (STAT3 phosphorylation; separate experiment, FIG. 11C): reduced phosphorylation
- phosphorylation of STAT3 (STAT3 phosphorylation; two designs: pre-treatment then anti-CD3/CD28, Th17-skewing 5 days then 3 hours treatment): significantly down-regulates
- frequency of IFN-γ-producing cells [10, 15]: significantly reduced the frequencies
- frequency of IL-17-producing cells [10, 15]: significantly reduced the frequencies
- IFN-γ secretion [10, 16]: significantly down-regulated
- IL-17 secretion [10, 16]: significantly down-regulated
- IL-21 secretion [10, 16]: significantly down-regulated
- STAT3 phosphorylation in spleens [11]: significant reduction
- STAT5 phosphorylation in spleens [11]: concurrent increase
- protein levels of RORγt, IRF4 and Bcl6 in spleenocytes [11]: dose-dependent decrease

- IC50 (ROCK1; Table 2, 5 uM ATP): > 10 µM
- IC50 (ROCK2 [12]; Table 2, 12 uM ATP): > 10 µM
Compound: CC(C)NC(=O)COc1cccc(-c2nc(Nc3ccc4[nH]ncc4c3)cc(C(F)(F)F)n2)c1 [Example 169]

- IC50 (ROCK1; [13]): > 10 µM
Compound: c1ccc2c(c1)CN(c1nccc(Nc3ccc4[nH]ncc4c3)n1)C2 [Example 182, N-(2-(isoindolin-2-yl)pyrimidin-4-yl)-1H-indazol-5-amine]

- IC50 (ROCK1; [13]): > 10 µM
Compound: COc1ccc2c(c1)CN(c1nccc(Nc3ccc(-c4ccncc4)cc3)n1)C2 [Example 200, 2-(5-methoxyisoindolin-2-yl)-N-(4-(pyridin-4-yl)phenyl)pyrimidin-4-amine]

- IC50 (ROCK1; [13]): > 10 µM
Compound: c1cc2c(cn1)CN(c1nccc(Nc3ccc4[nH]ncc4c3)n1)C2 [Example 195, N-(2-(1H-pyrrolo[3,4-c]pyridin-2(3H)-yl)pyrimidin-4-yl)-1H-indazol-5-amine]

- IC50 (ROCK1; [13]): > 10 µM
Compound: COc1ccc2c(c1)CCN(c1nccc(Nc3ccc4[nH]ncc4c3)n1)C2 [Example 191, N-(2-(6-methoxy-3,4-dihydroisoquinolin-2(1H)-yl)pyrimidin-4-yl)-1H-indazol-5-amine]

- IC50 (ROCK1; [13]): > 10 µM
Compound: COc1ccc2c(c1)CN(c1ccnc(Nc3ccc4[nH]ncc4c3)n1)C2 [Example 188, N-(4-(5-methoxyisoindolin-2-yl)pyrimidin-2-yl)-1H-indazol-5-amine]

Compound: COc1ccc2c(c1)CN(c1nccc(Nc3ccc4[nH]ncc4c3)n1)C2 [Example 181, N-(2-(5-methoxyisoindolin-2-yl)pyrimidin-4-yl)-1H-indazol-5-amine]
- secretion of IL-21 (cytokine secretion; FIG. 10 Panel A): inhibits
- inhibition of IL-17 secretion (cytokine secretion; FIG. 10 Panel B): dose-dependent

- IC50 (ROCK2 [12]; [13]): > 0.01 µM
Compound: COc1ccc2c(c1)CN(c1nc(C)c(C)c(Nc3ccc4[nH]ncc4c3)n1)C2 [Example 196, N-(2-(5-methoxyisoindolin-2-yl)-5,6-dimethylpyrimidin-4-yl)-1H-indazol-5-amine]

- IC50 (ROCK1; Table 2, 5 uM ATP): > 2 µM
- IC50 (ROCK2 [12]; Table 2, 12 uM ATP): > 5.5 µM
Compound: CC(N)c1cccc(-c2nccc(Nc3ccc4[nH]ncc4c3)n2)c1 (stereo not drawn) [Example 147, N-(2-(3-(1-aminoethyl)phenyl)pyrimidin-4-yl)-1H-indazol-5-amine]
